IC50 data for 21 compounds are collected here from patent US7981904B2, “Acetyl CoA carboxylase inhibitors” (Takeda Pharmaceutical Company Limited, priority 2008, dated 2011).

Assay [1] has as its target T1, Human ACC1 (Homo sapiens, UniProt Q13085).
T1 construct: made in house; host or cells: SF-9 insect cells (baculovirus, pFAST-BacHTc)
As to the kind of experiment: in vitro enzymatic ACC activity assay (malachite green, absorbance at 620 nm), ACC1. It counts as biochemical. The conditions noted are these: recombinant His-tagged human ACC1, 8 μg/mL; 60 min preincubation, 20 min reaction at 30° C. How it is done:
(§1) Provided in Example A is an in vitro enzymatic ACC activity assay for activity against ACC. The binding affinity of the test compound to ACC1 or ACC2 is determined by the changes in absorbance (at 620 nm); […]. It should be noted that a variety of other expression systems and hosts are also suitable for the expression of ACC, as would be readily appreciated by one of skill in the art.
A. Purification of Human ACC1
Human ACC1 cDNA was amplified from human liver cDNA by polymerase chain reaction using primers; 5′[…]3′ (SEQ ID NO. 1) and 5′[…]3′ (SEQ ID NO: 2). The amplified DNA fragment was digested by restriction enzyme SalI and NotI, and cloned into pFAST-BacHTc (Invitrogen). This plasmid DNA was used for preparation of recombinant vaculovirus with BAC-TO-BAC Baculovirus Expression System (Invitrogen).
SF-9 cells were infected with the vaculovirus and cultured at 27° C. for 3 days. Harvested cells were homogenized in buffer A (25 mM HEPES (pH7.5), 130 mM NaCl, 1 mM EDTA, 25 mM sodium glycerophosphate, 1 mM sodium orthovanadate, 10% glycerol, complete protease inhibitor), and subjected to ultracentrifuge at 185700×g for 50 min at 4° C. ACC1 protein with 6×His-tag at the N-terminal was purified from the supernatant using Ni-NTA Super Flow Gel (QIAGEN). Eluted protein was dialysed against buffer B (50 mM HEPES (pH 7.5), 300 mM NaCl, 10 mM MgCl2, 10 mM tripotassium citrate, 2 mM dithiothreitol) and concentrated using Vivaspin20 ultrafiltration tube (Sartorius).
(§2) C. Measurement of ACC Activity
(§3) Malachite green solution was prepared by mixing 100 mL of solution A (0.12% malachite green in 5N H2SO4), 25 mL of solution B (7.5% ammonium molybdate) and 2 mL of solution C (11% TWEEN-20).
(§4) ACC1 was diluted to 8 μg/mL in reaction buffer (50 mM HEPES pH7.5, 10 mM MgCl2, 10 mM tripotassium citrate, 2 mM DTT, 0.75 mg/mL fatty acid free BSA) and 10 μL diluted enzyme solution was pored into each well of 384-well clear bottom plate. Test compound was diluted in the reaction buffer and 5 μL of the compound solution was added into each well, and the mixture was incubated at 30° C. for 60 minutes. Reaction was initiated by addition of 5 μL substrate solution (50 mM KHCO3, 200 μM ATP, 200 μM acetyl-CoA). After incubation at 30° C. for 20 minutes, reaction was terminated by addition of 5 μL malachite green solution and absorbance at 620 nm was measured.
(§5) Percent activity at each concentration of compound was calculated from the following equation:
(§6) [formula] where Abs is absorbance, Avg is average.
(§7) Data were subjected to nonlinear regression analysis using GraphPad Prism Software (GraphPad Software Inc.) to obtain IC50 values.

Assay [2] concerns the target T2, Human ACC2 (Homo sapiens, UniProt O00763).
T2 construct: made in house; host or cells: SF-9 insect cells (baculovirus, pFAST-BacHTa)
The assay is described as follows: in vitro enzymatic ACC activity assay (malachite green, absorbance at 620 nm), ACC2. It is filed as biochemical. The settings on record: recombinant His-tagged human ACC2, 6.4 μg/mL; same method as ACC1. How it is done:
as §1
B. Purification of Human ACC2
Human ACC2 cDNA except coding region for mitochondria localization sequence was amplified from human skeletal muscle cDNA by polymerase chain reaction using primers; 5′[…]3′ (SEQ ID NO: 3) and 5′[…]3′ (SEQ ID NO: 4). The amplified DNA fragment was digested by SalI and AflIII, and cloned into pFAST-BacHTa (Invitrogen). Preparation of recombinant vaculovirus, infection of the virus to SF-9 cells and purification of recombinant ACC2 protein with 6×His-tag at the N-terminal were performed in the same method as described above.
as §2, §3, §4
ACC2 was diluted to 6.4 μg/mL in reaction buffer, and the activity was measured by the same method as described for ACC1.
as §5, §6, §7

A value given as a limit tells only on which side of the number the result lay.

T2 sequence (O00763 117-2458 limits assumed): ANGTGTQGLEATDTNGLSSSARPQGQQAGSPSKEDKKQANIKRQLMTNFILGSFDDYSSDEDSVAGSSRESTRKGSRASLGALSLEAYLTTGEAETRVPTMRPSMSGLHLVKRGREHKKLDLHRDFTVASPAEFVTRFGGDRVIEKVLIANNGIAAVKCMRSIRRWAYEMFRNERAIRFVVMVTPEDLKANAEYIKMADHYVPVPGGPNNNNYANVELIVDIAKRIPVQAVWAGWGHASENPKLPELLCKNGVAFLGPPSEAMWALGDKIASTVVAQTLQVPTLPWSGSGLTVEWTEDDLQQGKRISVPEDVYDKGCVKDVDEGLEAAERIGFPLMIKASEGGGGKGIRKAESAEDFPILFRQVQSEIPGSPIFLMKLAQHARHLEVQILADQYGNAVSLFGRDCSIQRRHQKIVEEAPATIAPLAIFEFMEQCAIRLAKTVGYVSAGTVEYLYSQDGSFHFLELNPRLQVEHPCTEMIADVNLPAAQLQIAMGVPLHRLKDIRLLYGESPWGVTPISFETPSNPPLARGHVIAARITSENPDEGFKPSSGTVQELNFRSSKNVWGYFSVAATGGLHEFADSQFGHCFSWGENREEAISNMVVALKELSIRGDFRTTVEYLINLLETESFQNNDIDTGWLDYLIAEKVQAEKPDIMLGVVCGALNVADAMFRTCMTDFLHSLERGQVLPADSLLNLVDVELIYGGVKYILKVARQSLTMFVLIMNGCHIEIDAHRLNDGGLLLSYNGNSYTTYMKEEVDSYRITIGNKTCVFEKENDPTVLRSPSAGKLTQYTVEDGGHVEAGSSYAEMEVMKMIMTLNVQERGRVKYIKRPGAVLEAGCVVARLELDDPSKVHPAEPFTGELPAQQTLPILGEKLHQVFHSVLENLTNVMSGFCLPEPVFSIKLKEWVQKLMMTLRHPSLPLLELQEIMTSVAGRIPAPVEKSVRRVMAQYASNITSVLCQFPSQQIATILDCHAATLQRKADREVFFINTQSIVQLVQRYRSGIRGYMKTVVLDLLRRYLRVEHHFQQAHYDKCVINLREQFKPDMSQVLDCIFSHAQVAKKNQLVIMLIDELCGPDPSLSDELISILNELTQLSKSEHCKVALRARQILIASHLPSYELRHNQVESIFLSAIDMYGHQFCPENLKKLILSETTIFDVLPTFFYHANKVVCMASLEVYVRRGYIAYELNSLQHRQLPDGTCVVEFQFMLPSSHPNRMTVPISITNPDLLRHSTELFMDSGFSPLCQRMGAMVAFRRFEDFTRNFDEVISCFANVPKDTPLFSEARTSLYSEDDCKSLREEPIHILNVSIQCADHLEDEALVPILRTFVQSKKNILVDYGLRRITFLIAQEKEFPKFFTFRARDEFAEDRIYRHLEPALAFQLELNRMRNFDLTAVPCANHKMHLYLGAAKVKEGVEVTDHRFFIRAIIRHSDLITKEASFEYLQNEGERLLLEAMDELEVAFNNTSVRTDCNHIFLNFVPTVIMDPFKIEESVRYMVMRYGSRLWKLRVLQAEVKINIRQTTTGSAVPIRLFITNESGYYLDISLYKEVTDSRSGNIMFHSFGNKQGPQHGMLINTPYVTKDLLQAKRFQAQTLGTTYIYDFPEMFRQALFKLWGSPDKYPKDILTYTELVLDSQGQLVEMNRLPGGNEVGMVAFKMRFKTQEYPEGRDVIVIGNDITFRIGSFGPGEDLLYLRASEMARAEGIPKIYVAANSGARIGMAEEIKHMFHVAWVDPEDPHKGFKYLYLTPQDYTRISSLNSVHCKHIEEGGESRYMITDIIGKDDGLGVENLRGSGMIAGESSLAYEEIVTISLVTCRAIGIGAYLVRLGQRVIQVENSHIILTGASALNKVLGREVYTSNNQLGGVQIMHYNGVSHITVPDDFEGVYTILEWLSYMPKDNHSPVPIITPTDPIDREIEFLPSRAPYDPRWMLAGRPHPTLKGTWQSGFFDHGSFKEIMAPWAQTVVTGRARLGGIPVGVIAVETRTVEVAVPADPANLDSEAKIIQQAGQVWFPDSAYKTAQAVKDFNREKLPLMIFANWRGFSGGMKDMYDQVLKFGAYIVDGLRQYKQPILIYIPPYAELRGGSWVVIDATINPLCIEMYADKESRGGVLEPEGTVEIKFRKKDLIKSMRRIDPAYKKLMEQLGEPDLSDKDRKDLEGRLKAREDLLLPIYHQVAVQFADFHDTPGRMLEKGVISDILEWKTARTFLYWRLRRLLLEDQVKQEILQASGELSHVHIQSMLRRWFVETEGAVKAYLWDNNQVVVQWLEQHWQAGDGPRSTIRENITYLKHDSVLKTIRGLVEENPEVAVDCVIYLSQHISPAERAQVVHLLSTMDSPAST

Take `CCNC(=O)Nc1sc2ccccc2c1C(=O)N1CCC2(CC1)N=C(CSC)NC2=O` [Compound 3, 1-ethyl-3-(3-(2-(methylthiomethyl)-4-oxo-1,3,8-triazaspiro[4.5]dec-1-enecarbonyl)benzo[b]thiophen-2-yl)urea]: the IC50 in assay [1] and in assay [2] was 1 to 10 µM throughout.
As to `CCNC(=O)Nc1sc2ccccc2c1C(=O)N1CCC2(CC1)N=C(CS(C)(=O)=O)NC2=O` [Compound 4, 1-ethyl-3-(3-(2-(methylsulfonylmethyl)-4-oxo-1,3,8-triazaspiro[4.5]dec-1-enecarbonyl)benzo[b]thiophen-2-yl)urea], the IC50 – broadly, the concentration that inhibits the measured activity by half – in assay [1] is over 10 µM; in assay [2], 1 to 10 µM.
As to `CCNC(=O)Nc1sc2ccccc2c1C(=O)N1CCC2(CC1)N=C(CN1C(=O)CCC1=O)NC2=O` [Compound 5, 1-(3-(2-((2,5-dioxopyrrolidin-1-yl)methyl)-4-oxo-1,3,8-triazaspiro[4.5]dec-1-enecarbonyl)benzo[b]thiophen-2-yl)-3-ethylurea], the IC50 in assay [1] and in assay [2] was over 10 µM each time.
Turning to `CCNC(=O)Nc1sc2ccccc2c1C(=O)N1CCC(N)(C#N)CC1` [Compound 6, 1-(3-(4-amino-4-cyanopiperidine-1-carbonyl)benzo[b]thiophen-2-yl)-3-ethylurea], the IC50 in assay [1] and in assay [2] was over 10 µM in each case.
As for `CCNC(=O)Nc1sc2ccccc2c1C(=O)N1CCC(N)(C(N)=O)CC1` [Compound 7, 4-amino-1-(2-(3-ethylureido)benzo[b]thiophene-3-carbonyl)piperidine-4-carboxamide], the IC50 in assay [1] and in assay [2] was over 10 µM each time.
With `CCNC(=O)Nc1sc2ccccc2c1C(=O)N1CCC2(CC1)N=C(CCl)NC2=O` [Compound 8, 1-(3-(2-(chloromethyl)-4-oxo-1,3,8-triazaspiro[4.5]dec-1-enecarbonyl)benzo[b]thiophen-2-yl)-3-ethylurea], the IC50 in assay [1] was over 10 µM; in assay [2], 1 to 10 µM.
For `CCNC(=O)Nc1sc2c(OC)cccc2c1C(=O)N1CCC2(CC1)N=C(CCl)NC2=O` [Compound 9, 1-(3-(2-(chloromethyl)-4-oxo-1,3,8-triazaspiro[4.5]dec-1-enecarbonyl)-7-methoxybenzo[b]thiophen-2-yl)-3-ethylurea], the IC50 in assay [1] and in assay [2] was 1 to 10 µM throughout.
`CCNC(=O)Nc1sc2ccccc2c1C(=O)N1CCC2(CC1)N=C(CCC(=O)OCC)NC2=O` [Compound 10, ethyl 3-(8-(2-(3-ethylureido)benzo[b]thiophene-3-carbonyl)-4-oxo-1,3,8-triazaspiro[4.5]dec-1-en-2-yl)propanoate]: the IC50 in assay [1] and in assay [2] was 1 to 10 µM in each case.
On to `CCNC(=O)Nc1sc2c(OC)cccc2c1C(=O)N1CCC2(CC1)N=C(CCC(=O)OCC)NC2=O` [Compound 11, ethyl 3-(8-(2-(3-ethylureido)-7-methoxybenzo[b]thiophene-3-carbonyl)-4-oxo-1,3,8-triazaspiro[4.5]dec-1-en-2-yl)propanoate], for which the IC50 in assay [1] and in assay [2] was under 1 µM throughout.
With `CCNC(=O)Nc1sc2ccccc2c1C(=O)N1CCC2(CC1)N=C(CCC(=O)N(CC)CC)NC2=O` [Compound 12, N,N-diethyl-3-(8-(2-(3-ethylureido)benzo[b]thiophene-3-carbonyl)-4-oxo-1,3,8-triazaspiro[4.5]dec-1-en-2-yl)propanamide], the IC50 in assay [1] and in assay [2] was 1 to 10 µM throughout.
`CCNC(=O)Nc1sc2ccccc2c1C(=O)N1CCC2(CC1)N=C(CCC(=O)N1CCCCC1)NC2=O` [Compound 13, 1-ethyl-3-(3-(4-oxo-2-(3-oxo-3-(piperidin-1-yl)propyl)-1,3,8-triazaspiro[4.5]dec-1-enecarbonyl)benzo[b]thiophen-2-yl)urea]: the IC50 in assay [1] is 1 to 10 µM; in assay [2], under 1 µM.
With `CCNC(=O)Nc1sc2ccccc2c1C(=O)N1CCC2(CC1)N=CNC2=O` [Compound 14, 1-ethyl-3-(3-(4-oxo-1,3,8-triazaspiro[4.5]dec-1-enecarbonyl)benzo[b]thiophen-2-yl)urea], the IC50 in assay [1] and in assay [2] was over 10 µM throughout.
With `CCCCC1=NC2(CCN(C(=O)c3c(NC(=O)NCC)sc4ccccc34)CC2)C(=O)N1` [Compound 15, 1-(3-(2-butyl-4-oxo-1,3,8-triazaspiro[4.5]dec-1-enecarbonyl)benzo[b]thiophen-2-yl)-3-ethylurea], the IC50 was 1 to 10 µM in assay [1] and under 1 µM in assay [2].
For `CCNC(=O)Nc1sc2c(OC)cccc2c1C(=O)N1CCC2(CC1)N=C(C(C)C)NC2=O` [Compound 16, 1-ethyl-3-(3-(2-isopropyl-4-oxo-1,3,8-triazaspiro[4.5]dec-2-enecarbonyl)-7-methoxybenzo[b]thiophen-2-yl)urea] the same measures were 1 to 10 µM and under 1 µM.
For `CCCCC1=NC2(CCN(C(=O)c3c(NC(=O)NCC)sc4c(OC)cccc34)CC2)C(=O)N1` [Compound 17, 1-(3-(2-butyl-4-oxo-1,3,8-triazaspiro[4.5]dec-1-enecarbonyl)-7-methoxybenzo[b]thiophen-2-yl)-3-ethylurea] the same measures were under 1 µM and under 1 µM.
As for `CCNC(=O)Nc1sc2c(OC)cccc2c1C(=O)N1CCC2(CC1)NC(c1ccccc1)=NC2=O` [Compound 18, 1-ethyl-3-(7-methoxy-3-(4-oxo-2-phenyl-1,3,8-triazaspiro[4.5]dec-2-enecarbonyl)benzo[b]thiophen-2-yl)urea], the IC50 in assay [1] is 1 to 10 µM; in assay [2] it was under 1 µM.
Turning to `CCCCN1C=NC2(CCN(C(=O)c3c(NC(=O)NCC)sc4ccccc34)CC2)C1=O` [Compound 20, 1-(3-(3-butyl-4-oxo-1,3,8-triazaspiro[4.5]dec-1-enecarbonyl)benzo[b]thiophen-2-yl)-3-ethylurea], the IC50 in assay [1] is over 10 µM; in assay [2], 1 to 10 µM.
For `CCNC(=O)Nc1sc2ccccc2c1C(=O)N1CCC2(CC1)N=C(CSc1ccc(F)cc1)NC2=O` [Compound 21, 1-ethyl-3-(3-(2-((4-fluorophenylthio)methyl)-4-oxo-1,3,8-triazaspiro[4.5]dec-1-enecarbonyl)benzo[b]thiophen-2-yl)urea] the same measures were 1 to 10 µM and 1 to 10 µM.
As for `CCNC(=O)Nc1sc2ccccc2c1C(=O)N1CCC2(CC1)N=C(CSC(C)C)NC2=O` [Compound 22, 1-ethyl-3-(3-(2-(isopropylthiomethyl)-4-oxo-1,3,8-triazaspiro[4.5]dec-1-enecarbonyl)benzo[b]thiophen-2-yl)urea], the figures for the IC50 in assay [1] and in assay [2] were 1 to 10 µM and under 1 µM, respectively.
For the compound `CCNC(=O)Nc1sc2ccccc2c1C(=O)N1CCC2(CC1)N=C(C[S+]([O-])C(C)C)NC2=O` (stereo not drawn) [Compound 23, 1-ethyl-3-(3-(2-(isopropylsulfinylmethyl)-4-oxo-1,3,8-triazaspiro[4.5]dec-1-enecarbonyl)benzo[b]thiophen-2-yl)urea], the IC50 in assay [1] was over 10 µM; in assay [2], under 1 µM.
In the case of `CCNC(=O)Nc1sc2ccccc2c1C(=O)N1CCC2(CC1)N=C(CS(=O)(=O)C(C)C)NC2=O` [Compound 24, 1-ethyl-3-(3-(2-(isopropylsulfonylmethyl)-4-oxo-1,3,8-triazaspiro[4.5]dec-1-enecarbonyl)benzo[b]thiophen-2-yl)urea], the values for the IC50 in assay [1] and in assay [2] were 1 to 10 µM and under 1 µM, respectively.
